Test results taken from ChEMBL document CHEMBL6177994 (J Med Chem, 2025).
Active and inactive are the calls of the source. The calls are words filed in the database; no cut-off is given here.

Tests used:
[1] = system: Protein cereblon/GTPase KRas (Homo sapiens), P01116+Q96SW2 [G12D]; test: PROTAC activity at CRBN/KRAS G12D mutant in human ASPC1 cells assessed as induction of KRAS G12D mutant degradation at 1 nM measured up to 36 hrs by immunoblot analysis; assay type: cell-based
[2] = Antitumor activity against human PK-59 cells xenografted in female Balb/c nude mouse model assessed as tumor growth inhibition at 3 mg/kg, iv QW measured after 28 days relative to control; assay type: functional; conditions: PK-59, 672 h, time 28 day, read-out: TGI
[3] = Antitumor activity against human PK-59 cells xenografted in female Balb/c nude mouse model assessed as tumor growth inhibition at 0.1 mg/kg, iv QW measured after 28 days relative to control; assay type: functional; conditions: PK-59, 672 h, time 28 day, read-out: TGI
[4] = Antitumor activity against human GP2d cells xenografted in female Balb/c nude mouse model assessed as tumor growth inhibition at 3 mg/kg, iv QW measured after 28 days relative to control; assay type: functional; conditions: 672 h, time 28 day, read-out: TGI
Cytochrome P450 2C8 = Cytochrome P450 2C8 (Homo sapiens, UniProt P10632); test: Inhibition of CYP2C8 in human liver microsomes using amodiaquine as substrate at 10 uM incubated for 20 mins in presence of NADPH by LC/MS analysis; assay type: ADME, Microsome
[5] = Toxicity in female Balb/c nude mouse xenografted with human PK-59 cells assessed as change in body weight at 0.1 to 3 mg/kg, iv QW measured after 28 days; assay type: organism-based; conditions: in vivo, 672 h, dose 0.1-3 mg/kg, time 28 day
[6] = system: Protein cereblon/GTPase KRas (Homo sapiens), P01116+Q96SW2 [G12D]; test: PROTAC activity at CRBN/KRAS G12D mutant in human ASPC1 cells assessed as induction of KRAS G12D mutant degradation at 5 nM preincubated with MRTX1133 followed by compound addition and measured after 24 hrs by Western blot analysis; assay type: cell-based
[7] = Half life in male ICR mouse at 1 mg/kg, iv measured up to 24 hrs by LC-MS/MS analysis; assay type: ADME, organism-based; conditions: in vivo
[8] = Drug concentration in male Balb/c nude mouse plasma xenografted with human GP2d cells at 10 mg/kg, iv administered as single dose measured after 168 hrs by LC-MS/MS analysis; assay type: ADME, organism-based
NCI-H358 = test: Antiproliferative activity against human NCI-H358 cells harbouring KRAS G12C mutant assessed as inhibition of cell growth measured after 72 hrs by Cell titer glo method; assay type: functional, cell-based
[9] = AUC (0 to t) in male ICR mouse at 1 mg/kg, iv measured up to 24 hrs by LC-MS/MS analysis; assay type: ADME, organism-based; conditions: in vivo
[10] = system: Protein cereblon/GTPase KRas (Homo sapiens), P01116+Q96SW2 [G12D]; test: PROTAC activity at CRBN/KRAS G12D mutant in human ASPC1 cells assessed as induction of KRAS G12D mutant degradation at 5 nM measured after 24 hrs by immunoblot analysis relative to control; assay type: cell-based
[11] = target: Protein cereblon/GTPase KRas (Homo sapiens, UniProt P01116+Q96SW2, G12D); test: PROTAC activity at CRBN/KRAS G12D mutant in human ASPC1 cells assessed as induction of KRAS G12D mutant degradation measured after 24 hrs by immunoblot analysis; assay type: cell-based
ASPC1 = test: Antitumor activity against human ASPC1 cells harbouring KRAS G12D mutant xenografted in female Balb/c nude mouse model assessed as tumor regression at 1 to 20 mg/kg, iv QW administered weekly and measured after 28 days; assay type: functional, organism-based; conditions: dose 1-20 mg/kg, time 28.0 day
[12] = Drug concentration in male Balb/c nude mouse plasma xenografted with human PK-59 cells at 10 mg/kg, iv administered as single dose measured after 6 hrs by LC-MS/MS analysis; assay type: ADME, organism-based
[13] = Antitumor activity against human PK-59 cells xenografted in female Balb/c nude mouse model assessed as tumor growth inhibition at 1 mg/kg, iv QW measured after 28 days relative to control; assay type: functional; conditions: PK-59, 672 h, time 28 day, read-out: TGI
[14] = system: Protein cereblon/GTPase KRas (Homo sapiens), P01116+Q96SW2 [G12D]; test: PROTAC activity at CRBN/KRAS G12D mutant in human ASPC1 cells assessed as induction of KRAS G12D mutant degradation at 10 nM measured after 12 hrs by immunoblot analysis relative to control; assay type: cell-based
HPAC = test: Antiproliferative activity against human HPAC cells harbouring KRAS G12D mutant assessed as inhibition of cell growth measured after 72 hrs by Cell titer glo method; assay type: functional, cell-based
[15] = Drug concentration in male Balb/c nude mouse tumor xenografted with human PK-59 cells at 10 mg/kg, iv administered as single dose measured after 168 hrs by LC-MS/MS analysis; assay type: ADME, organism-based, Neoplasm; conditions: read-out: Ct
[16] = Clearance in male Beagle dog at 1 mg/kg, iv measured up to 24 hrs by LC-MS/MS analysis; assay type: ADME, organism-based, Canis lupus familiaris; conditions: in vivo
[17] = Metabolic stability in mouse liver microsomes assessed as intrinsic clearance at 1 uM preincubated for 3 mins with NADPH and measured up to 60 mins by LC-MS/MS analysis; assay type: ADME, Microsome; conditions: time < 63 min, read-out: CLH
[18] = Drug concentration in male Balb/c nude mouse plasma xenografted with human GP2d cells at 10 mg/kg, iv administered as single dose measured after 6 hrs by LC-MS/MS analysis; assay type: ADME, organism-based
[19] = target: Protein cereblon/Eukaryotic peptide chain release factor GTP-binding subunit ERF3A (Homo sapiens) (UniProt Q96SW2+P15170); test: PROTAC activity at CRBN/GSPT1 in human ASPC1 cells assessed as induction of GSPT1 degradation at 10 to 1000 nM measured after 24 hrs by immunoblot analysis; assay type: cell-based; conditions: dose 10-1000 nM
[20] = Antitumor activity against human Panc 04.03 cells harbouring KRAS G12D mutant xenografted in female Balb/c nude mouse model assessed as tumor regression at 1 to 10 mg/kg, iv QW administered weekly and measured after 28 days relative to control; assay type: functional; conditions: dose 1-10 mg/kg, time 28 day
[21] = Toxicity in female Balb/c nude mouse xenografted with human GP2d cells assessed as change in body weight at 1 to 10 mg/kg, iv QW measured after 28 days; assay type: organism-based; conditions: in vivo, 672 h, dose 1-10 mg/kg, time 28 day
SK-LU-1 = test: Antiproliferative activity against human SK-LU-1 cells harbouring KRAS G12D mutant assessed as inhibition of cell growth measured after 72 hrs by Cell titer glo method; assay type: functional, cell-based
[22] = Plasma protein binding in human at 2 uM by LC-MS/MS analysis; assay type: ADME, cell-free; conditions: read-out: PPB
[23] = Antitumor activity against human PK-59 cells xenografted in female Balb/c nude mouse model assessed as tumor growth inhibition at 0.3 mg/kg, iv QW measured after 28 days relative to control; assay type: functional; conditions: PK-59, 672 h, time 28 day, read-out: TGI
SW1990 = test: Antiproliferative activity against human SW1990 cells harbouring KRAS G12D mutant assessed as inhibition of cell growth measured after 72 hrs by Cell titer glo method; assay type: functional, cell-based
Cytochrome P450 2D6 = Cytochrome P450 2D6 (Homo sapiens, UniProt P10635); test: Inhibition of CYP2D6 in human liver microsomes using dextromethorphan as substrate at 10 uM incubated for 15 mins in presence of NADPH by LC/MS analysis; assay type: ADME, Microsome; conditions: 0.25 h
[24] = Stability in dog plasma assessed as half life at 1 uM measured up to 120 mins by LC-MS/MS analysis; assay type: ADME, cell-free, Canis lupus familiaris

Sequence of Protein cereblon/GTPase KRas (Homo sapiens), P01116+Q96SW2 [G12D] (P01116 whole entry G12D): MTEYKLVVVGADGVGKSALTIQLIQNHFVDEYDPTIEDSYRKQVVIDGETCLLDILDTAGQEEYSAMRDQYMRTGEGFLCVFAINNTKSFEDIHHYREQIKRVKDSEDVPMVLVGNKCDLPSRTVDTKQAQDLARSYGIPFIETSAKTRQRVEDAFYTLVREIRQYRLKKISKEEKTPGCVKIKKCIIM
Sequence of Protein cereblon/GTPase KRas (Homo sapiens), P01116+Q96SW2 [G12D] (Q96SW2 whole entry partner): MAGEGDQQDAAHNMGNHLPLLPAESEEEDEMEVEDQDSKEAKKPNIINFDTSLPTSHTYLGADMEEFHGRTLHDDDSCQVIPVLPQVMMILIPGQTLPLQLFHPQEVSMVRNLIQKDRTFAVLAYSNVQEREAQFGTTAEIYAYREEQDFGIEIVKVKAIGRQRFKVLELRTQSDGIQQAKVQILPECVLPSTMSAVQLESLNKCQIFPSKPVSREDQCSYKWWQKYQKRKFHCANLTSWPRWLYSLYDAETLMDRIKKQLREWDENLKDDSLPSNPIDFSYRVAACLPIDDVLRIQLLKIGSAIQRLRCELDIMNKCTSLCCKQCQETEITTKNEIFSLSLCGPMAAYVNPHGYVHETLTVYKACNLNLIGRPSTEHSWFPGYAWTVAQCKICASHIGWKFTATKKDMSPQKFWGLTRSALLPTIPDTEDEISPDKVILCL
Sequence of Protein cereblon/Eukaryotic peptide chain release factor GTP-binding subunit ERF3A (Homo sapiens) (P15170 whole entry, looked up): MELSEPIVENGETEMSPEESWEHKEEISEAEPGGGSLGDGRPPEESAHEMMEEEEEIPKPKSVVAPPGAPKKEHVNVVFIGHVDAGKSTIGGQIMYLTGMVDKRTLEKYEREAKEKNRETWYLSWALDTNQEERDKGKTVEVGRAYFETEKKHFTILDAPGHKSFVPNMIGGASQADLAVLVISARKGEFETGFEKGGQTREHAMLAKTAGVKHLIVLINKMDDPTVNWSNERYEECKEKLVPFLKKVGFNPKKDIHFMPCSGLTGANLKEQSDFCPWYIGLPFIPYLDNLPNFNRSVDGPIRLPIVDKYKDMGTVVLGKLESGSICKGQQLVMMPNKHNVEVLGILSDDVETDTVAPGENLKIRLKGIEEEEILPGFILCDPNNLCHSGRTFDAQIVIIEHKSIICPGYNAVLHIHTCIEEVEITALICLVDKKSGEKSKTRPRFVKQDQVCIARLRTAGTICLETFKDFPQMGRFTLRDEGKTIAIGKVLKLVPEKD
Sequence of Protein cereblon/Eukaryotic peptide chain release factor GTP-binding subunit ERF3A (Homo sapiens) (Q96SW2 whole entry, looked up): as the sequence (Q96SW2 whole entry partner) above
Sequence of Cytochrome P450 2D6 (P10635 whole entry): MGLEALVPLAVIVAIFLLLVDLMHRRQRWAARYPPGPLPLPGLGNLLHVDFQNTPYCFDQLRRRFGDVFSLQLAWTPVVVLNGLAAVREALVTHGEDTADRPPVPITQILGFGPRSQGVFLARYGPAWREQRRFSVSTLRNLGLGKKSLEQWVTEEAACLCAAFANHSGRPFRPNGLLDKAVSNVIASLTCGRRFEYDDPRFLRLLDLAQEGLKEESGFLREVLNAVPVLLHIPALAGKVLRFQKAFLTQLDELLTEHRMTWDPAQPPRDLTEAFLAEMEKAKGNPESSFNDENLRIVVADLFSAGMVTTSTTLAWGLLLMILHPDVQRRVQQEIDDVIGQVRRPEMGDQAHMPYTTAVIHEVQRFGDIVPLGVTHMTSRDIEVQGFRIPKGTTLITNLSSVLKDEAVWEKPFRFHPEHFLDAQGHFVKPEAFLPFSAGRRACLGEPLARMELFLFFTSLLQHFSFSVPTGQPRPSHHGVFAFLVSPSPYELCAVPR
Sequence of Cytochrome P450 2C8 (P10632 whole entry): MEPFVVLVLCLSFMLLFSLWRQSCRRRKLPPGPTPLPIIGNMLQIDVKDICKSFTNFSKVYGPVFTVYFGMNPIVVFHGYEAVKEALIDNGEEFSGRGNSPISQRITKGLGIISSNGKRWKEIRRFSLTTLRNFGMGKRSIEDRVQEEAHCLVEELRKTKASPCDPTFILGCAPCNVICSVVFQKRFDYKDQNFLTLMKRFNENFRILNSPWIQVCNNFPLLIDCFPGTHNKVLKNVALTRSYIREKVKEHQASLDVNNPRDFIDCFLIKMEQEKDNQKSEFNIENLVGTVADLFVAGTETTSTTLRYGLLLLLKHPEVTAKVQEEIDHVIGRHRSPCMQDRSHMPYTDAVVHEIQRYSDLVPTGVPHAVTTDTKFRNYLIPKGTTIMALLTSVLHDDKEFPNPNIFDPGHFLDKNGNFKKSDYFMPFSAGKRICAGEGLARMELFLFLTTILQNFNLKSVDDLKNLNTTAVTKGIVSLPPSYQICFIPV
Sequence of Protein cereblon/GTPase KRas (P01116 whole entry G12D, stated change not applied): as the sequence (P01116 whole entry G12D) above
Sequence of Protein cereblon/GTPase KRas (Q96SW2 whole entry, stated change not applied): as the sequence (Q96SW2 whole entry partner) above

**Q.** With `C#Cc1c(F)ccc2cc(O)cc(-c3ncc4c(N5CC6CCC(C5)N6)nc(OCC5(CN6CCC7(CC6)CC(N6CCC(c8cc9c(cc8F)c(N8CCC(=O)NC8=O)nn9C)CC6)C7)CC5)nc4c3F)c12` as the compound, how does the Activity [1] read?
**A.** Its Activity is “Active”.

**Q.** And the inhibition in vivo at 3 mg/kg [2]?
**A.** Its inhibition in vivo at 3 mg/kg is 42.9%.

**Q.** And the inhibition in vivo at 0.1 mg/kg [3]?
**A.** The inhibition in vivo at 0.1 mg/kg was 81.4%.

**Q.** What about the inhibition in vivo at 3 mg/kg [4] of the same compound?
**A.** The inhibition in vivo at 3 mg/kg was 96.9%.

**Q.** What about the “inhibition (INH)” value (Cytochrome P450 2C8) of the same compound?
**A.** Its value is “Not_active”.

**Q.** What about the Activity [5] of the same compound?
**A.** The Activity was “Non-toxic”.

**Q.** And the Activity [6]?
**A.** Its Activity is “Active”.

**Q.** And the half-life [7]?
**A.** Its half-life is 8.82 h.

**Q.** And the concentration at 168 h [8]?
**A.** Its concentration at 168 h is 4.1 ng/mL.

**Q.** And the Activity (NCI-H358)?
**A.** Its Activity is “Weak_effect; Compound Showed Weaker Potency In Antiproliferative Activity Compared To Mrtx1133”.

**Q.** And the AUC(0-t) at 24 h [9]?
**A.** Its AUC(0-t) at 24 h is 0.397 µM·h.

**Q.** And the Activity [10]?
**A.** Its Activity is 92%.

**Q.** And the DC50 [11]?
**A.** Its DC50 is 0.6 nM.

**Q.** What about the Activity (ASPC1) of the same compound?
**A.** The Activity was “Weak_effect”.

**Q.** What about the concentration at 6 h [12] of the same compound?
**A.** The concentration at 6 h was 270 ng/mL.

**Q.** What about the inhibition in vivo at 1 mg/kg [13] of the same compound?
**A.** The inhibition in vivo at 1 mg/kg was 98%.

**Q.** What about the Activity [14] of the same compound?
**A.** The Activity was 90%.

**Q.** And the Activity (HPAC)?
**A.** The Activity was “Active; Compound Showed Stronger Antiproliferative Activity Compared To Mrtx1133”.

**Q.** What about the concentration at 168 h [15] of the same compound?
**A.** Its concentration at 168 h is 719 ng/g.

**Q.** What about the clearance [16] of the same compound?
**A.** Its clearance is 33 mL/min/kg.

**Q.** And the CLint scaled at 1 µM [17]?
**A.** Its CLint scaled at 1 µM is 12.7 mL/min/kg.

**Q.** What about the concentration at 6 h [18] of the same compound?
**A.** Its concentration at 6 h is 113 ng/mL.

**Q.** And the Activity [19]?
**A.** The Activity was “inactive”.

**Q.** And the Activity [20]?
**A.** The Activity was >30%.

**Q.** And the Activity [21]?
**A.** The Activity was “Non-toxic”.

**Q.** And the Activity (SK-LU-1)?
**A.** The Activity was “Active; Compound Showed Stronger Antiproliferative Activity Compared To Mrtx1133”.

**Q.** And the fraction unbound at 2 µM [22]?
**A.** The fraction unbound at 2 µM was < 0.05.

**Q.** And the inhibition in vivo at 0.3 mg/kg [23]?
**A.** The inhibition in vivo at 0.3 mg/kg was 93%.

**Q.** What about the Activity (SW1990) of the same compound?
**A.** Its Activity is “Active; Compound Showed Stronger Antiproliferative Activity Compared To Mrtx1133”.

**Q.** And the “inhibition (INH)” value (Cytochrome P450 2D6)?
**A.** Its value is “Not_active”.

**Q.** What about the half-life at 1 µM [24] of the same compound?
**A.** The half-life at 1 µM was 7.22 h.
